Reference: PubChem BioAssay (NCI)
Several values for one entry are separate records, joined by “and”; a condition that tells them apart may be missing. Equal entries are not always repeated.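 In this assay, cells in 96-well plates receive the compound at five concentrations for 48 hours. Endpoints are linearly interpolated between the surrounding concentrations. GI50 marks 50% less growth. The concentration for full growth arrest is given as TGI.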

How the values were obtained:
Experiment in all cases: NCI anticancer screen, dose series, 48 h
[1] = test system: IGROV1 ovarian
[2] = test system: OVCAR-3 ovarian
[3] = test system: LOX IMVI melanoma
[4] = test system: SF-295 CNS
[5] = test system: HCT-116 colon
[6] = test system: SR leukemia
[7] = test system: KM12 colon
[8] = test system: OVCAR-4 ovarian
[9] = test system: SNB-75 CNS
[10] = test system: DU-145 prostate

Structure (SMILES) | GI50 [1] [µM] | TGI [1] [µM] | GI50 [2] [µM] | TGI [2] [µM] | GI50 [3] [µM] | TGI [3] [µM] | GI50 [4] | TGI [4] [µM] | GI50 [5] [µM] | TGI [5] [µM] | GI50 [6] [µM] | TGI [6] [µM] | GI50 [7] [µM] | TGI [7] [µM] | GI50 [8] [µM] | TGI [8] [µM] | GI50 [9] [µM] | TGI [9] [µM] | GI50 [10] [µM] | TGI [10] [µM]
CNC(=O)c1c(F)cccc1Nc1nc(Nc2cc3c(cc2OC)CCN3C(=O)CN(C)C)nc2[nH]ccc12 | 17.5 | 43.1 | 15 | 30.8 | 2.4 | 7.26 | 19 µM | 38.2 | 1.54 | 3.33 | 0.0203 | > 100 | 2.23 | 4.99 | 1.87 | 3.99 | 11.7 | 24.7 | 7.37 | 24.9
O=C1NC2(CCCCC2)C(=O)N1CCN(CCCl)CCCl | 17.7 | – | > 244 | > 250 | > 25 | > 250 | > 25 µM and 138 µM | > 250 | > 25 | > 250 | – | 25 | > 25 | > 194 | > 25 | > 250 | > 25 | > 250 | – | > 25
Cc1nc2sc3c(N)ncnc3c2c(C)c1C | > 25 | > 25 | > 25 | > 25 | > 25 | > 25 | > 25 µM | > 25 | > 25 | > 25 | > 25 | > 25 | > 25 | > 25 | > 25 | > 25 | > 25 | > 25 | > 25 | > 25
CC(=O)Nc1ccc(S(=O)(=O)N=S(C)C)cc1 | – | > 100 | – | > 100 | – | > 100 | – | > 100 | – | > 100 | – | > 100 | – | > 100 | – | > 100 | – | > 100 | – | > 100
COc1cc2c3c(n(CCCNCCCNCCN)c(=O)c2cc1OC)-c1cc2c(cc1C3=O)OCO2 | 32.3 | > 100 | 19.5 | 53.5 | 13.1 | 36.4 | > 100 µM | > 100 | 23 | 57.9 | 9.86 | 43.9 | 85 | > 100 | 18.6 | 55.6 | 28.9 | 94.6 | 51.9 | > 100
COc1cc(-c2nc3ccccc3o2)cc(CN2CCCCC2)c1O | 14 | > 100 | 2.75 | 39.7 | – | – | 1.85 µM | 6.6 | 4.27 | 35.4 | 5.24 | 71.9 | 2.39 | 16.6 | 9.48 | > 71.8 | 2.3 | 4.76 | 1.82 | 3.33
CCCCCCCCCCCCN=C(N)c1ccc(N2CCN(c3ccc(C(N)=NCCCCCCCCCCCC)cc3)CC2)cc1 | – | – | 8.66 | 20.7 | 12 | 23 | 7.66 µM | 18.1 | 6.9 | 13.8 | 3.8 | > 50 | 11.7 | 25.1 | 8.88 | 20.9 | – | – | 3.57 | 14.3
COS(C)(=O)=O | – | > 2 | – | > 2 | – | > 2 | – | – | – | > 2 | – | > 2 | – | > 2 | – | > 2 | – | > 2 | – | > 2
O=C(Nc1cc(Cl)cc(Cl)c1)c1cccc(NC2=C(Cl)C(=O)N(Cc3ccccc3)C2=O)c1 | 41.1 | > 100 | 21.8 | > 100 | 12.1 | > 100 | 34.2 µM | > 100 | 12 | > 100 | 6.02 | 80.8 | 31.5 | > 100 | 81.3 | > 100 | – | – | 32.1 | > 100
CC1=C(C(=O)Nc2ccc(F)c(Cl)c2)C(c2cccc(Oc3ccccc3)c2)NC(=S)N1 (configuration not stated) | 10.6 | 37 | 11.3 | 28.6 | 8.77 | 20.2 | 15.6 µM | > 50 | 14.6 | 46.8 | 14.3 | > 50 | 18.8 | > 50 | – | – | – | – | 21.2 | > 50
COc1ccc2c(c1)CCc1cc(OC)ccc1/[N+]([O-])=[N+]\2[O-] | – | 35 | – | 33.9 | – | 42.7 | – | 37.6 | – | – | – | > 42.7 | – | 46 | – | – | – | 33.3 | – | 38.1
CCCCOc1ccc(/C=N/Nc2cc(C)nc3ccc(Br)cc23)cc1 | 1.91 | 3.59 | 2.06 | 3.84 | 1.77 | 3.24 | 1.82 µM | 3.36 | 1.77 | 3.31 | – | – | 1.95 | 3.85 | 1.67 | 3.06 | 1.7 | 3.24 | 1.94 | 3.87
COc1ccc(-c2cn(-c3ccc(OC)c(OC)c3)c(=O)[nH]2)cc1 | > 100 | > 100 | > 100 | > 100 | > 100 | > 100 | > 100 µM | > 100 | > 100 | > 100 | – | – | 92.1 | > 100 | 75.7 | > 100 | 24.6 | 98.7 | > 100 | > 100
C=C1C(=O)O[C@H]2[C@H]1CC/C(COC(=O)/C=C\C(=O)NCc1ccc(Cn3c(=O)sn(CCI)c3=O)cc1)=C\CC[C@@]1(C)O[C@@H]21 | 3.17 | 11.9 | 1.76 | 3.24 | 2.18 | 4.88 | 18.9 µM | 33.4 | 1.93 | 4.75 | – | – | 11.5 | 24.5 | 3.62 | 17.3 | 4.24 | 18.5 | 3.61 | 13.2
O=C1C=C(OCC=C(C(F)(F)F)C(F)(F)F)c2ccccc2C1=O | – | – | 1.78 | 3.39 | 1.56 | 3.46 | 14.6 µM | 30.3 | 2.07 | 5.08 | 2.02 | 7.43 | 1.67 | 3.25 | 1.53 | 2.91 | – | – | 1.75 | 3.17
